Assay results as given in publication PMC9284540 (Journal of Molecular Biology, 2022).

Assays:
[1] = molecular target: T1, SARS-CoV-2^A358V/F360N MD (Severe acute respiratory syndrome coronavirus 2, UniProt P0DTD1, A1176V/F1178N); format: biochemical
[2] = molecular target: T2, SARS-CoV-2^F360N/D361S MD (Severe acute respiratory syndrome coronavirus 2, UniProt P0DTD1, D1179S/F1178N); format: biochemical
[3] = molecular target: T1, SARS-CoV-2^A358V/F360N MD; format: binding
[4] = molecular target: T2, SARS-CoV-2^F360N/D361S MD; format: binding

Q: What does the source list for `N#C[C@@]1(c2ccc3c(N)ncnn23)O[C@H](CO)[C@@H](O)[C@H]1O` [GS-441524]?
A: Initial substrate decay rate k [1]: 0.127 ± 0.01 µM/min; decrease of the k value vs free form [1]: 33.2%; Initial substrate decay rate k [2]: 0.160 ± 0.007 µM/min; decrease of the k value vs free form [2]: 24.9%; exchange regime on NMR time scale [3]: fast exchange regime; exchange regime on NMR time scale [4]: fast exchange regime
